Test results published in PubChem BioAssay (NCI).
Several values for one entry are separate records, joined by “and”; a condition that tells them apart may be missing. Equal entries are not always repeated.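 Grown in 96-well plates, cells were treated for 48 hours with each compound at five concentrations. Insufficient inhibition: endpoint recorded as highest concentration tested. GI50: concentration for 50% inhibition of growth. TGI: concentration producing complete growth inhibition.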

Tests used:
Experiment in all cases: DTP human tumour cell line panel, 48 h
HOP-92 NSCLC = system: HOP-92 NSCLC
COLO 205 colon = system: COLO 205 colon
K-562 leukemia = system: K-562 leukemia
TK-10 renal = system: TK-10 renal
HL-60(TB) leukemia = system: HL-60(TB) leukemia
RPMI-8226 leukemia = system: RPMI-8226 leukemia
UACC-257 melanoma = system: UACC-257 melanoma
IGROV1 ovarian = system: IGROV1 ovarian
SK-MEL-2 melanoma = system: SK-MEL-2 melanoma
MDA-MB-231 breast = system: MDA-MB-231 breast

| Structure (SMILES) | TGI (HOP-92 NSCLC) | TGI (COLO 205 colon) | TGI (K-562 leukemia) | TGI (TK-10 renal) | TGI (HL-60(TB) leukemia) | TGI (RPMI-8226 leukemia) | TGI (UACC-257 melanoma) | TGI (IGROV1 ovarian) | TGI (SK-MEL-2 melanoma) | GI50 (MDA-MB-231 breast) | TGI (MDA-MB-231 breast) | GI50 (HOP-92 NSCLC) | GI50 (COLO 205 colon) | GI50 (K-562 leukemia) | GI50 (RPMI-8226 leukemia) | GI50 (UACC-257 melanoma) | GI50 (IGROV1 ovarian) | GI50 (TK-10 renal) | GI50 (SK-MEL-2 melanoma) | GI50 (HL-60(TB) leukemia) |
| --- | --- | --- | --- | --- | --- | --- | --- | --- | --- | --- | --- | --- | --- | --- | --- | --- | --- | --- | --- | --- |
| C#Cc1c(C)c(/C=C/C(C)=C\C(=O)OC)n(C)c1C | > 100 µM | > 100 µM | > 100 µM | > 100 µM | > 100 µM | > 100 µM | > 100 µM | > 100 µM | – | – | – | – | – | – | – | – | – | – | – | – |
| CCN(CC)c1ccc(N=Nc2ccc(-c3nc4cccnc4s3)cc2)cc1 | > 100 µM | > 100 µM | > 100 µM | > 100 µM | > 100 µM | > 100 µM | > 100 µM | > 100 µM | > 100 µM | – | – | – | – | – | – | – | – | – | – | – |
| ClC/C=C/CSc1ncnc2nc[nH]c12 | > 100 µM | > 100 µM | > 100 µM | – | – | > 100 µM | > 100 µM | > 100 µM | – | > 100 µM | > 100 µM | > 100 µM | > 100 µM | > 100 µM | > 100 µM | > 100 µM | > 100 µM | – | – | – |
| Cc1ccccc1NC(=O)C(=O)C(C(=O)c1ccccc1F)C1OC(=O)c2ccccc21 (configuration not stated) | 65.8 µM | 45.1 µM | > 100 µM | > 100 µM | 56.5 µM | 48.3 µM | > 100 µM | – | 65.4 µM | – | – | – | – | – | – | – | – | – | – | – |
| N#Cc1c(N)oc2cc3c(C#N)c(N)oc3cc12 | > 100 µM | > 100 µM | > 100 µM | > 100 µM | > 100 µM | > 100 µM | > 100 µM | > 100 µM | > 100 µM | – | – | – | – | – | – | – | – | – | – | – |
| O=C1N(c2ccc(Cl)cc2)C(=O)C2(SC=NN2Cc2ccccc2)N1c1ccc(Cl)cc1 (configuration not stated) | > 100 µM | – | > 100 µM | > 100 µM | > 100 µM | > 100 µM | > 100 µM | > 100 µM | – | – | – | – | – | – | – | – | – | – | – | – |
| CC(=O)OC1(C(C)=O)CC2(c3ccccc3)OC1(c1ccccc1)c1ccccc12 (configuration not stated) | > 100 µM | 21.4 µM | – | > 100 µM | – | 96.8 µM | 25.1 µM | 56.7 µM | 83.2 µM | – | – | – | – | – | – | – | – | – | – | – |
| N#Cc1sc2nc3c(c(-c4ccccc4)c2c1N)CCCC3 | > 100 µM | – | > 100 µM | > 100 µM | > 100 µM | > 100 µM | > 100 µM | – | > 100 µM | – | – | – | – | – | – | – | – | – | – | – |
| COc1cccc(NC(=O)/C(CS(=O)(=O)CCC(C(C)=O)C(C)=O)=N\NC(C)(C)C)c1 | > 100 µM | > 100 µM | > 100 µM | > 100 µM | > 100 µM | > 100 µM | > 100 µM | > 100 µM | > 100 µM | – | – | – | – | – | – | – | – | – | – | – |
| CCCCCCNC(=O)CCN(C(=O)O)S(=O)(=O)c1ccc(NC(=O)c2ccccc2)cc1 | > 100 µM | > 59.8 µM | > 71.1 µM | > 100 µM | > 64.2 µM | 54.4 µM | > 69.6 µM | > 100 µM | > 100 µM | – | – | – | – | – | – | – | – | – | – | – |
| CC(=O)[CH-]C(=O)c1ccccc1.CC(=O)[CH-]C(=O)c1ccccc1.Cl.[O-]CCc1ccccn1.[O-]CCc1ccccn1.[Ti+4] | – | 72.2 µM | > 100 µM | 93.3 µM | 93.5 µM | 58.4 µM | > 100 µM | 75.3 µM | 38.9 µM | – | – | – | 29.3 µM | 21 µM | 15.8 µM | 28.3 µM | 27.2 µM | 28.7 µM | 19.2 µM | 21.2 µM |
| Nc1ncc(CN2CCCC2)c(-c2ccccc2O)n1 | > 750 µM | > 750 µM | – | > 750 µM | – | > 750 µM | > 750 µM | > 750 µM | – | – | – | – | – | > 750 µM | – | – | – | – | – | > 750 µM |
| C=C(C)[C@@H]1CC[C@]2(C(=O)O)CC[C@]3(C)[C@H](CC[C@@H]4[C@@]5(C)CCC(N)C(C)(C)[C@@H]5CC[C@]43C)[C@@H]12 (some centres not stated) | – | – | 3.36 µM | – | – | 5.21 µM | – | 6.22 µM | 3.69 µM | 1.88 µM | 3.69 µM | – | – | 0.682 µM | 2.04 µM | – | 2.41 µM | – | 1.95 µM | – |
| NN=C1/C(=C\c2ccccc2)CCC/C1=C/c1ccccc1 | 76.7 µM | 71.4 µM | 44 µM | > 100 µM | 45.1 µM | 38 µM | > 100 µM | > 100 µM | > 100 µM | – | – | – | – | – | – | – | – | – | – | – |
| NC1(C(=O)O)CCC(C(=O)O)CC1 (configuration not stated) | > 100 µM | > 100 µM | > 100 µM | > 100 µM | > 100 µM | > 100 µM | > 100 µM | > 100 µM | > 100 µM | – | – | – | – | – | – | – | – | – | – | – |
| CC1(C)C2CC(=O)C1(C)C(OCc1ccccc1)C2Br (configuration not stated) | – | – | > 100 µM | > 100 µM | 50.2 µM and 62.1 µM | – | – | > 100 µM | 25.8 µM and > 100 µM | 18.5 µM and > 100 µM | 42.9 µM and > 100 µM | – | – | – | – | – | – | – | 13.1 µM and > 100 µM | – |
